BigSolDB 2.1

Settings: in acetone

CC[C@H](C)C(=O)O[C@H]1C[C@@H](C)C=C2C=C[C@H](C)[C@H](CC[C@@H]3C[C@@H](O)CC(=O)O3)[C@H]21
Settings | solubility (mole fraction)
278.65 K | 0.00637
283.2 K | 0.00742
288.2 K | 0.00869
293.25 K | 0.0104
298.75 K | 0.0123
303.95 K | 0.0157
308.25 K | 0.0183
313.25 K | 0.0226
318.15 K | 0.0272
322.65 K | 0.0321
